Laboratory results reported in patent US11098033B2, “Ku inhibitors and their use” (INDIANA UNIVERSITY RESEARCH AND TECHNOLOGY CORPORATION, priority 2016, dated 2021).
Where “and” joins values, the source holds several entries; their conditions need not be identical. Equal values may be shown once. Read-outs that look alike come from different tables or passages of the source.

Experiments:
[1] = target: T1, Recombinant human Ku heterodimer (Homo sapiens, UniProt P12956+P13010); assay: Ku-DNA binding assay
T1 construct: made in house; host or cells: insect cells infected with recombinant baculovirus
From the text: Ku is a DNA end-binding protein that is essential for the repair of DNA double strand breaks via the NHEJ pathway. The mechanism of DNA binding by Ku is via a toroid structure that encircles double-stranded DNA from a terminus.

[2] = test system: H460 non-small cell lung cancer cells, EMX1 locus; assay: Crispr/Cas9 mediated gene insertion at the EMX1 locus; type: cell-based
From the text: To assess the effect of Ku inhibitors on genome engineering efficiency we designed an assay to quantify the recombination efficiency of a Crispr/Cas9 mediated gene insertion event. A donor insert of 2.2 kbp encoding puromycin resistance and a GFP gene was flanked by 800 bp homology arms directing the insert to the EMX1 locus. A guide RNA directing the Cas9 nuclease to the EMX1 gene was purchased and co-transfected with the donor construct and Cas9 expressing plasmid in H460 non-small cell lung cancer cells that were either treated with vehicle or 20 uM 205. 24 hours later, cells were placed under selection with puromycin for 5 days and plated in 96-well plates for single cell cloning. Clones were expanded, genomic DNA isolated and location specific PCR analysis was performed to assess accurate gene insertion at the EMX1 locus.

[3] = Table 2, synthesized derivatives, several values in a cell = separate determinations, read-out: IC50
[4] = Table 1, purchased second generation inhibitors, several values in a cell = separate determinations, read-out: IC50

T1 sequence (P12956 whole entry): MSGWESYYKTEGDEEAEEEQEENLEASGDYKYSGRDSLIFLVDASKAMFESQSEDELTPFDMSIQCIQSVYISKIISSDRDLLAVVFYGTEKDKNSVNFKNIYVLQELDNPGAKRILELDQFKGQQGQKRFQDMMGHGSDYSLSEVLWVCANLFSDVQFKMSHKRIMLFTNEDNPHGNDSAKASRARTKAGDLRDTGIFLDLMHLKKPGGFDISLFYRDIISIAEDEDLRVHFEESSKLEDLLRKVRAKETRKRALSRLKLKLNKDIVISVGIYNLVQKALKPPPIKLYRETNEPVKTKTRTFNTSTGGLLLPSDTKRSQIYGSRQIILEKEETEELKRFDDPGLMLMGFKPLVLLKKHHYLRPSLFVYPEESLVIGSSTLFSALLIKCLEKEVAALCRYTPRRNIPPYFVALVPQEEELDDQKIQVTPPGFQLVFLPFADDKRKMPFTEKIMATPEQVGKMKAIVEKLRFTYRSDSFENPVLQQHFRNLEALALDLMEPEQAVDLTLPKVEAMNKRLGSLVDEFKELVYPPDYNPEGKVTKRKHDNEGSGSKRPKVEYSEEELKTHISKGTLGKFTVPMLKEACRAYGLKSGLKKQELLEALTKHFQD
T1 sequence (P13010 whole entry): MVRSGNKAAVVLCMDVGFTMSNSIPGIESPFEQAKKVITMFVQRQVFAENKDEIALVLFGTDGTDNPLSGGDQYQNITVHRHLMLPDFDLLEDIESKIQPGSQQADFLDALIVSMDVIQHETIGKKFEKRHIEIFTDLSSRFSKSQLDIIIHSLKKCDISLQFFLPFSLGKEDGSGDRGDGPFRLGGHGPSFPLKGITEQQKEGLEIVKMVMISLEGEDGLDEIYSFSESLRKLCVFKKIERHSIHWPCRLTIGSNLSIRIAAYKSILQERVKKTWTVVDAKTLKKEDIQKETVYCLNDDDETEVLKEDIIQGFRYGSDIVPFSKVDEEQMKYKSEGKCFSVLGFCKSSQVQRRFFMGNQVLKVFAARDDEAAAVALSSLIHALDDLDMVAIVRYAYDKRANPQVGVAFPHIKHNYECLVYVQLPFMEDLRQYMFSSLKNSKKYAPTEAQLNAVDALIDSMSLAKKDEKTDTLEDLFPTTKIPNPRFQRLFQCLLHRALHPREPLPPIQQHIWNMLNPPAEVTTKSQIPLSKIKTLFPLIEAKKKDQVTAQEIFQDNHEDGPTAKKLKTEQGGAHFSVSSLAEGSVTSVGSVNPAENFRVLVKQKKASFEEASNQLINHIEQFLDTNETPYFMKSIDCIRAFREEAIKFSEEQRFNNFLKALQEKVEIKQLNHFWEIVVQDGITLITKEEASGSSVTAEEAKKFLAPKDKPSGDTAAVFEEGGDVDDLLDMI

IC50 [1, 3] [µM]	IC50 [1, 4]	Compound	also measured
13	–	COc1cccc(NC(=O)c2cc(-c3ccc(CC4C(=O)N(c5cccc(-c6nnn[nH]6)c5)N=C4C)o3)ccc2Cl)c1 (stereo not drawn) [NG-03-205, 5-(5-((1-(3-(1H-Tetrazol-5-yl)phenyl)-3-methyl-5-oxo-4,5-dihydro-1H-pyrazol-4-yl)methyl)furan-2-yl)-2-chloro-N-(3-methoxyphenyl)benzamide]	Efficiency ([2]; +Inhibitor (20 uM), accurate gene insertion at EMX1 locus, −Inhibitor 14%): 80%; In/Out+ ([2]; +Inhibitor (20 uM), clones positive in location specific PCR, −Inhibitor 4): 4; Clones ([2]; +Inhibitor (20 uM), puromycin selection 5 days, single cell cloning, −Inhibitor 28): 5; increase in precise genome insertion efficiency ([2]; H460 cells, 20 uM, versus vehicle): greater than 6 fold
8.75	–	CCOC(=O)c1ccc(N2N=C(C)/C(=C/c3ccc(-c4ccc(Cl)c(C(=O)Nc5cccc(OC)c5)c4)s3)C2=O)cc1 [NG-03-235, Ethyl (Z)-4-(4-((5-(4-chloro-3-((3-methoxyphenyl)carbamoyl)phenyl)thiophen-2-yl)methylene)-3-methyl-5-oxo-4,5-dihydro-1H-pyrazol-1-yl)benzoate]	–
–	5.6 µM	CCCCOC(=O)c1cc(-c2ccc(/C=C3\C(=O)N(c4ccc(Cl)c(C(=O)O)c4)N=C3C)o2)ccc1Cl [compound 0530, reference compound]	IC50 ([1]; IC50 (concentration that inhibits 50% of the binding activity), titration into Ku-DNA binding reactions (FIG. 1, FIG. 2)): ~5 µM
10	–	CC1=NN(c2cccc(C(=O)O)c2)C(=O)C1Cc1ccc(-c2ccc(Cl)c(C(=O)NCC3CC3)c2)o1 (stereo not drawn) [NG-01-72, 3-(4-((5-(4-Chloro-3-((cyclopropylmethyl)carbamoyl)phenyl)furan-2-yl)methyl)-3-methyl-5-oxo-4,5-dihydro-1H-pyrazol-1-yl)benzoic acid]	–
–	7.6 µM and 5.7 µM	CCCOC(=O)c1cc(-c2ccc(/C=C3\C(=O)N(c4cccc(C(=O)O)c4)N=C3C)o2)ccc1Cl [compound 2727, reference compound]	–
12	–	CC1=NN(c2cccc(C(=O)O)c2)C(=O)C1Cc1ccc(-c2ccc(Cl)c(C(=O)NCC3CC3)c2)s1 (stereo not drawn) [NG-03-231, 3-(4-((5-(4-Chloro-3-((cyclopropylmethyl)carbamoyl)phenyl)thiophen-2-yl)methyl)-3-methyl-5-oxo-4,5-dihydro-1H-pyrazol-1-yl)benzoic acid]	–
–	4.2 µM and 9 µM	CCOC(=O)c1cc(-c2ccc(/C=C3\C(=O)N(c4cccc(C(=O)O)c4)N=C3C)o2)ccc1Cl [compound 2733, reference compound]	–
30	–	CC1=NN(c2ccc(S(N)(=O)=O)cc2)C(=O)/C1=C\c1ccc(-c2ccc(Cl)c(C(=O)NCC3CC3)c2)o1 [NG-03-212, (Z)-2-chloro-N-(cyclopropylmethyl)-5-(5-((3-methyl-5-oxo-1-(4-sulfamoylphenyl)-1,5-dihydro-4H-pyrazol-4-ylidene)methyl)furan-2-yl)benzamide]	–
7.5	–	COc1ccc(NC(=O)c2cc(-c3ccc(CC4C(=O)N(c5cccc(C(=O)O)c5)N=C4C)o3)ccc2Cl)cc1OC (stereo not drawn) [NG-03-206, 3-(4-((5-(4-Chloro-3-((3,4-dimethoxyphenyl)carbamoyl)phenyl)furan-2-yl)methyl)-3-methyl-5-oxo-4,5-dihydro-1H-pyrazol-1-yl)benzoic acid]	–

Compound	IC50 [1, 3] [µM]	IC50 [1, 4]	also measured
(Z)-2-chloro-5-(54(1-(3-cyanophenyl)-3-methyl-5-oxo-1,5-dihydro-4H-pyrazol-4-ylidene)methyl)furan-2-yl)-N-(3-methoxyphenyl)benzamide [NG-03-193]	25	–	–
